ChEMBL document CHEMBL3526080, “In vitro inhibition of the bile salt export pump correlates with risk of cholestatic drug-induced liver injury in humans” (Drug Metab Dispos, 2012)

Legend:
Bile salt export pump [1] = molecular target: Bile salt export pump (Homo sapiens, UniProt O95342); assay: Inhibition of human BSEP expressed in plasma membrane vesicles of Sf21 cells assessed as inhibition of ATP-dependent [3H]taurocholate uptake; assay type: cell membranes
Bile salt export pump [2] = molecular target: Bile salt export pump (Rattus norvegicus, UniProt O70127); assay: Inhibition of Sprague-Dawley rat Bsep expressed in plasma membrane vesicles of Sf21 cells assessed as inhibition of ATP-dependent [3H]taurocholate uptake; assay type: cell membranes
Bile salt export pump (Rattus norvegicus, UniProt O70127), sequence (O70127 whole entry): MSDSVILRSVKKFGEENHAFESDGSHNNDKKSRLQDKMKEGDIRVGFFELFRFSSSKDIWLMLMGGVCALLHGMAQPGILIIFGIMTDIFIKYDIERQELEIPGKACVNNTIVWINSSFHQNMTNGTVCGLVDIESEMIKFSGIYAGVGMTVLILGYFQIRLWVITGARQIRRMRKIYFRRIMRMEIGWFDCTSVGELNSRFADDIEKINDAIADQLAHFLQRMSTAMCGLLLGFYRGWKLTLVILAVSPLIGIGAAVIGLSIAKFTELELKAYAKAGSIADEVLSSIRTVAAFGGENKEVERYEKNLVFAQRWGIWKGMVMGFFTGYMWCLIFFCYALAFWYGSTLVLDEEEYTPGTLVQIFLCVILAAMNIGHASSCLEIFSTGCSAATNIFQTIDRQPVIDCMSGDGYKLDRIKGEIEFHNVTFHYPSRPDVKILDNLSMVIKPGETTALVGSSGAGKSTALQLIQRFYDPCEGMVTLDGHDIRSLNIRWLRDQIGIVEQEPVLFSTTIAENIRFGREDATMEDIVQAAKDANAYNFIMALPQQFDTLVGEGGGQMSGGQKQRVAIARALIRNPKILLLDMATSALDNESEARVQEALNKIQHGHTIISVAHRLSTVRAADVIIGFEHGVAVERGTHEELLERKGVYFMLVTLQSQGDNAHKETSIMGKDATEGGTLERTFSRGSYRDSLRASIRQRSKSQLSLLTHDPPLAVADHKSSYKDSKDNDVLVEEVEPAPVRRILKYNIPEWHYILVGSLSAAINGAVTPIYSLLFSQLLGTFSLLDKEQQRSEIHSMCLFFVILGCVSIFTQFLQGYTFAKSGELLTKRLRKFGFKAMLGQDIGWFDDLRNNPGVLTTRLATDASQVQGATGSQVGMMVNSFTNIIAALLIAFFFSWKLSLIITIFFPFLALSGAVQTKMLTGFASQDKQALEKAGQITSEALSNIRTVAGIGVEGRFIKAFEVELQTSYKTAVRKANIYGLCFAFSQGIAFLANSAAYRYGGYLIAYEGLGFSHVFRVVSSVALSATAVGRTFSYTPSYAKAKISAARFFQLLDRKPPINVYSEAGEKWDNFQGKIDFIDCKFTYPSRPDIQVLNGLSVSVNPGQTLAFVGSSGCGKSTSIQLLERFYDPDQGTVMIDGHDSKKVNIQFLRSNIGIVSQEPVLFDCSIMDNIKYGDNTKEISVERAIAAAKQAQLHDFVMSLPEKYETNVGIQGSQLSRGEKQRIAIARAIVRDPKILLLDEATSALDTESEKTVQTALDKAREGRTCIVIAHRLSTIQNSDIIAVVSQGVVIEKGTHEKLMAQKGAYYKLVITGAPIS

Bile salt export pump (Homo sapiens, UniProt O95342), sequence (O95342 whole entry): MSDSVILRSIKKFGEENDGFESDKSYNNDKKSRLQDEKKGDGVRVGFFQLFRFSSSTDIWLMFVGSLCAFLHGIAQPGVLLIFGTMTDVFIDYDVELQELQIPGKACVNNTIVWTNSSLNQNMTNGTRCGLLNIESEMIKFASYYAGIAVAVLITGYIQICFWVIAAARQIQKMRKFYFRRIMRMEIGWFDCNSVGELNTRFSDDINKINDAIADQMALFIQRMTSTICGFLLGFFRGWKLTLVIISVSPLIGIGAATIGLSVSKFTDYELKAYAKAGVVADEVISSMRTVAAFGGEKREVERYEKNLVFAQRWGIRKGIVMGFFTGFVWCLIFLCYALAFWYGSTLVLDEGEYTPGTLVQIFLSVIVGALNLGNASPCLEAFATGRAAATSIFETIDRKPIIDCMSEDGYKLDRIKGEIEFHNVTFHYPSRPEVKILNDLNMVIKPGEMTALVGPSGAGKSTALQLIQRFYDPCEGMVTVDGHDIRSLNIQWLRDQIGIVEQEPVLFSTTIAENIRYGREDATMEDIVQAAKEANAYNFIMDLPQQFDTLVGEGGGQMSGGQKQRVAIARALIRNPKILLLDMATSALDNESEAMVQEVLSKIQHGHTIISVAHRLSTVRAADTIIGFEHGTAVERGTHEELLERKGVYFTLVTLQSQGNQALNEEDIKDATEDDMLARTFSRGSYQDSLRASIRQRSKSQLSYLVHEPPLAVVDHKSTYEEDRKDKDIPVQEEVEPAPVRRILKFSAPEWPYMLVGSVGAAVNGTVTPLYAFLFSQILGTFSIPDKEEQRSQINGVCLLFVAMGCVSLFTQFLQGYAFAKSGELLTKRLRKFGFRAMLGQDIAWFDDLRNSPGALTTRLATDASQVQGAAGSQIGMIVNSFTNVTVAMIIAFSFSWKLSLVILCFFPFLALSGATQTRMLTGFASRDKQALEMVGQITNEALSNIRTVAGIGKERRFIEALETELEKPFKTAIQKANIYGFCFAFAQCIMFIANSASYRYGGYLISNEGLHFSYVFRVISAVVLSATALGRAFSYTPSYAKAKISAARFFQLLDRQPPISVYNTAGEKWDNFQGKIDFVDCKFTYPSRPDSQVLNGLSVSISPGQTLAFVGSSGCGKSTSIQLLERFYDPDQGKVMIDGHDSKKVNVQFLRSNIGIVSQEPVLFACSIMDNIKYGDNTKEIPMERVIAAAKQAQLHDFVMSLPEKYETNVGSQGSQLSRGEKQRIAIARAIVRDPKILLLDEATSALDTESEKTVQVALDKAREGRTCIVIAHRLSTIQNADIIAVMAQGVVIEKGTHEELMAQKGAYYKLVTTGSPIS

Compound | IC50 (Bile salt export pump [1]) [µM] | IC50 (Bile salt export pump [2]) [µM]
CC(C(=O)O)c1ccc2oc(-c3ccc(Cl)cc3)nc2c1 (centres undefined) [BENOXAPROFEN] | 175 | 99.1
C[C@@H]1C[C@H]2[C@@H]3CCC4=CC(=O)C=C[C@]4(C)[C@@]3(F)[C@@H](O)C[C@]2(C)[C@@]1(O)C(=O)CO [DEXAMETHASONE] | 137 | 232
O=C(O)c1ccccc1O [SALICYLIC ACID] | > 1000 | > 1000
O=C(OCC(O)CO)c1ccccc1Nc1ccnc2cc(Cl)ccc12 (centres undefined) [GLAFENINE] | 22.3 | 32.2
CCc1ccc(CCOc2ccc(CC3SC(=O)NC3=O)cc2)nc1 (centres undefined) [PIOGLITAZONE] | 0.3 | 2
Cc1ccc(C(=O)c2cc(O)c(O)c([N+](=O)[O-])c2)cc1 [TOLCAPONE] | 120 | 47.2
COc1cc2c(cc1OC)C(=O)C(CC1CCN(Cc3ccccc3)CC1)C2 (centres undefined) [DONEPEZIL] | 206 | 519
[H]/N=C(/N)N[C@H]1[C@H](O)[C@@H](O)[C@H](O[C@@H]2O[C@@H](C)[C@](O)(C=O)[C@H]2O[C@@H]2O[C@@H](CO)[C@H](O)[C@@H](O)[C@@H]2NC)[C@@H](N/C(N)=N\[H])[C@@H]1O [STREPTOMYCIN] | > 1000 | > 1000
CCCNC(=O)NS(=O)(=O)c1ccc(Cl)cc1 [CHLORPROPAMIDE] | > 1000 | > 1000
Cc1onc(-c2c(F)cccc2Cl)c1C(=O)N[C@@H]1C(=O)N2[C@@H]1SC(C)(C)[C@@H]2C(=O)O [FLOXACILLIN] | 209 | 429
NCCc1ccc(O)c(O)c1 [DOPAMINE] | > 1000 | > 1000
N[C@@H]1CON=C1O [CYCLOSERINE] | > 1000 | > 1000
CC(=O)Nc1ccc(O)cc1 [ACETAMINOPHEN] | > 1000 | > 1000
CC1(C)S[C@@H]2[C@H](NC(=O)[C@H](N)c3ccc(O)cc3)C(=O)N2[C@H]1C(=O)O [AMOXICILLIN] | > 1000 | > 1000
CC(N/C(=N\C#N)Nc1ccncc1)C(C)(C)C (centres undefined) [PINACIDIL ANHYDROUS] | 348 | 222
CN(CCOc1ccc(CC2SC(=O)NC2=O)cc1)c1ccccn1 (centres undefined) [ROSIGLITAZONE] | 6.4 | 40
C[C@H]1COc2c(N3CCN(C)CC3)c(F)cc3c(=O)c(C(=O)O)cn1c23 [LEVOFLOXACIN] | > 1000 | > 1000
CN(C)CCN(Cc1cccs1)c1ccccn1 | > 1000 | > 1000
COc1ccc(C(=O)NCc2cccnc2)cc1C(=O)NCc1cccnc1 [PICOTAMIDE] | 441 | 637
CC(c1cc2ccccc2s1)N(O)C(N)=O (centres undefined) [ZILEUTON] | > 1000 | 564
CC(C)NNC(=O)c1ccncc1 [IPRONIAZID] | > 1000 | > 1000
COc1ccccc1Oc1c(NS(=O)(=O)c2ccc(C(C)(C)C)cc2)nc(-c2ncccn2)nc1OCCO [BOSENTAN] | 38.1 | 30.6
CCCN(CCC)C(=O)Cc1c(-c2ccc(Cl)cc2)nc2ccc(Cl)cn12 [ALPIDEM] | 9.2 | 23
CCCC(CCC)C(=O)O [VALPROIC ACID] | > 1000 | > 1000
CC(=O)Nc1ccc(OCC(O)CNC(C)C)cc1 (centres undefined) [PRACTOLOL] | > 1000 | > 1000
NC(=O)N1c2ccccc2C=Cc2ccccc21 [CARBAMAZEPINE] | > 1000 | > 1000
CCC(=O)O[C@H]1[C@H](O[C@@H]2[C@@H](C)[C@H](O[C@H]3C[C@@](C)(OC)[C@@H](O)[C@H](C)O3)[C@@H](C)C(=O)O[C@H](CC)[C@@](C)(O)[C@H](O)[C@@H](C)C(=O)[C@H](C)C[C@@]2(C)O)O[C@H](C)C[C@@H]1N(C)C [ERYTHROMYCIN ESTOLATE] | 4.1 | 11.4

Compound | IC50 (Bile salt export pump [1]) [µM] | IC50 (Bile salt export pump [2]) [µM]
O=C(O)[C@H]1/C(=C/CO)O[C@@H]2CC(=O)N21 [CLAVULANIC ACID] | > 1000 | > 1000
CC1=C(CC(=O)O)c2cc(F)ccc2/C1=C\c1ccc([S+](C)[O-])cc1 (centres undefined) | 226 | 87.5
CC(C)(Oc1ccc(CCNC(=O)c2ccc(Cl)cc2)cc1)C(=O)O [BEZAFIBRATE] | 232 | 391
CN1CCN(C2=Nc3cc(Cl)ccc3Nc3ccccc32)CC1 [CLOZAPINE] | 126 | 197
O=C(C1CCCCC1)N1CC(=O)N2CCc3ccccc3C2C1 (centres undefined) [PRAZIQUANTEL] | 96.8 | 153
CN1CCC(=C2c3ccccc3CC(=O)c3sccc32)CC1 [KETOTIFEN] | 738 | > 1000
O=C(O)c1cc(=O)c2c(OCC(O)COc3cccc4oc(C(=O)O)cc(=O)c34)cccc2o1 [CROMOLYN] | > 1000 | > 1000
CC(=O)N1CCN(c2ccc(OCC3COC(Cn4ccnc4)(c4ccc(Cl)cc4Cl)O3)cc2)CC1 (centres undefined) [KETOCONAZOLE] |  | 15.6
CN1Cc2c(N)cccc2C(c2ccccc2)C1 (centres undefined) [NOMIFENSINE] | > 1000 | > 1000
Nc1ccc(S(=O)(=O)c2ccc(N)cc2)cc1 [DAPSONE] |  | > 1000
Cc1ncc(CO)c(CO)c1O [PYRIDOXINE] | > 1000 | > 1000
CCc1nn(CCCN2CCN(c3cccc(Cl)c3)CC2)c(=O)n1CCOc1ccccc1 [NEFAZODONE] | 4.2 | 17.4
Cc1c(C)c2c(c(C)c1O)CCC(C)(COc1ccc(CC3SC(=O)NC3=O)cc1)O2 (centres undefined) [TROGLITAZONE] | 2.7 | 10.6
CN(Cc1cnc2nc(N)nc(N)c2n1)c1ccc(C(=O)N[C@@H](CCC(=O)O)C(=O)O)cc1 [METHOTREXATE] | > 1000 | > 1000
CC(C)(S)[C@@H](N)C(=O)O [PENICILLAMINE] | > 1000 | > 1000
CNC(=O)Oc1ccc2c(c1)[C@]1(C)CCN(C)[C@@H]1N2C [PHYSOSTIGMINE] | > 1000 | > 1000
CO[C@H]1/C=C/O[C@@]2(C)Oc3c(C)c(O)c4c(O)c(cc(O)c4c3C2=O)NC(=O)/C(C)=C\C=C\[C@H](C)[C@H](O)[C@@H](C)[C@@H](O)[C@@H](C)[C@H](OC(C)=O)[C@@H]1C [RIFAMYCIN] | 6.3 | 3.1
CO[C@H]1/C=C/O[C@@]2(C)Oc3c(C)c(O)c4c(O)c(c(/C=N/N5CCN(C)CC5)c(O)c4c3C2=O)NC(=O)/C(C)=C\C=C\[C@H](C)[C@H](O)[C@@H](C)[C@@H](O)[C@@H](C)[C@H](OC(C)=O)[C@@H]1C [RIFAMPIN] | 11.3 | 34.7
Cc1oncc1C(=O)Nc1ccc(C(F)(F)F)cc1 [LEFLUNOMIDE] | 177 | 112
CC(C)NCC(O)c1ccc(O)c(O)c1 (centres undefined) [ISOPROTERENOL] | > 1000 | > 1000
NC(=O)OCC(COC(N)=O)c1ccccc1 [FELBAMATE] | > 1000 | > 1000
O=C1CN(/N=C/c2ccc([N+](=O)[O-])o2)C(=O)N1 [NITROFURANTOIN] |  | > 1000
Cn1cnc([N+](=O)[O-])c1Sc1ncnc2nc[nH]c12 [AZATHIOPRINE] |  | > 1000
NS(=O)(=O)c1cc(C(=O)O)c(NCc2ccco2)cc1Cl [FUROSEMIDE] |  | > 1000
COc1ccc(Cl)cc1C(=O)NCCc1ccc(S(=O)(=O)NC(=O)NC2CCCCC2)cc1 [GLYBURIDE] |  | 2.8
CNC(=C[N+](=O)[O-])NCCSCc1ccc(CN(C)C)o1 [RANITIDINE] |  | > 1000
